Test systems include SK-MEL-2 melanoma; CAKI-1 renal; UACC-257 melanoma; IGROV1 ovarian; KM12 colon; MOLT-4 leukemia; SF-268 CNS; HCT-15 colon; M14 melanoma.
What all share (test): NCI anticancer screen, dose series, 48 h

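96-well plates; 48 h exposure; 5 concentrations. Endpoints by linear interpolation between flanking doses. Not reached: highest tested concentration assigned. The concentration for 50% growth inhibition is given as GI50. TGI: concentration producing complete growth inhibition.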

Regarding `CC(C)c1c2[nH]c3ccccc3c2c(C(C)C)c2[nH]c3ccccc3c12`, the TGI in the assay with SK-MEL-2 melanoma, in the assay with CAKI-1 renal, in the assay on UACC-257 melanoma, in the assay with IGROV1 ovarian, in the assay with KM12 colon and with MOLT-4 leukemia was > 100 µM in each case. The TGI in the assay with SF-268 CNS, with HCT-15 colon and with M14 melanoma was > 100 µM throughout.

With `COc1ccc(OC)c(C2SCC(=O)N2NC(=O)C(O)c2ccccc2)c1` (stereo not drawn), the GI50 in the assay with SK-MEL-2 melanoma, in the assay on CAKI-1 renal, with UACC-257 melanoma, with IGROV1 ovarian, in the assay on KM12 colon and with MOLT-4 leukemia was > 100 µM each time. Also, the GI50 with SF-268 CNS, in the assay with HCT-15 colon and in the assay with M14 melanoma was > 100 µM throughout. The TGI in the assay with SK-MEL-2 melanoma, in the assay on CAKI-1 renal, in the assay on UACC-257 melanoma, in the assay on IGROV1 ovarian, in the assay with KM12 colon and in the assay on MOLT-4 leukemia was > 100 µM throughout. The TGI in the assay on SF-268 CNS, in the assay with HCT-15 colon and in the assay with M14 melanoma was > 100 µM in each case.

Take `CCOC(=O)C(=O)Nc1cc(Cl)ccc1Cl`: the TGI in the assay on SK-MEL-2 melanoma, with CAKI-1 renal, with UACC-257 melanoma, in the assay on IGROV1 ovarian, with KM12 colon and with MOLT-4 leukemia was > 100 µM each time. For the same compound, the TGI in the assay with SF-268 CNS, in the assay with HCT-15 colon and in the assay with M14 melanoma was > 100 µM throughout.

Regarding `COc1cc2nc(NCCCCCNC(=O)c3ccco3)nc(N)c2cc1OC`, the TGI with SK-MEL-2 melanoma was 36.5 µM; in the assay on CAKI-1 renal, > 100 µM; in the assay with UACC-257 melanoma, 38.1 µM; in the assay with IGROV1 ovarian, > 100 µM; with KM12 colon, 62.4 µM; in the assay with MOLT-4 leukemia, 67.8 µM. The TGI with SF-268 CNS is > 100 µM; in the assay with HCT-15 colon, > 100 µM; in the assay with M14 melanoma, 34.8 µM.

As to `COCCOCOc1ccc(OCOCCOC)c2c1C(=O)c1ccccc1C2=O`, the TGI was > 100 µM with SK-MEL-2 melanoma; > 93 µM in the assay on CAKI-1 renal; > 88.9 µM in the assay on UACC-257 melanoma; > 100 µM in the assay on IGROV1 ovarian; > 100 µM with KM12 colon; > 100 µM in the assay with MOLT-4 leukemia. Further, the TGI in the assay on SF-268 CNS, in the assay with HCT-15 colon and in the assay with M14 melanoma was > 100 µM in each case.

For `Fc1cccc(C2SCc3nc4ccccc4n32)c1F` (stereo not drawn), the TGI was 76.4 µM in the assay with SK-MEL-2 melanoma; > 100 µM with CAKI-1 renal; > 100 µM in the assay with UACC-257 melanoma; > 100 µM in the assay on IGROV1 ovarian; > 100 µM in the assay on KM12 colon; 68.5 µM in the assay with MOLT-4 leukemia. Also, the TGI in the assay on SF-268 CNS, with HCT-15 colon and with M14 melanoma was > 100 µM in each case.

On to `O=C([CH-]C(=O)c1ccccc1)c1ccccc1.O=C([CH-]C(=O)c1ccccc1)c1ccccc1.[OH-].[OH-].[Ti+4]`, for which the GI50 with SK-MEL-2 melanoma is 76.5 µM; in the assay on CAKI-1 renal, 85.3 µM; in the assay with UACC-257 melanoma, > 100 µM; with IGROV1 ovarian it was > 100 µM; in the assay on KM12 colon it was > 100 µM; in the assay on MOLT-4 leukemia it was 54.7 µM. Also, the values for the GI50 in the assay on SF-268 CNS, with HCT-15 colon and in the assay with M14 melanoma were 92.5 µM, > 100 µM and 36.2 µM, respectively. Further, the TGI in the assay with SK-MEL-2 melanoma, in the assay with CAKI-1 renal, in the assay on UACC-257 melanoma, with IGROV1 ovarian, in the assay with KM12 colon and with MOLT-4 leukemia was > 100 µM each time. Moreover, the TGI with SF-268 CNS, in the assay on HCT-15 colon and with M14 melanoma was > 100 µM throughout.

Consider `COc1ccc2c(c1)OC1=C(C(=O)OC1)C2c1cc(OC)c2c(c1)OCO2` (stereo not drawn), for which the GI50 is 0.0405 µM in the assay with SK-MEL-2 melanoma; 0.108 µM in the assay on CAKI-1 renal; > 46.1 µM in the assay on UACC-257 melanoma; 0.0716 µM in the assay with IGROV1 ovarian; 0.0304 µM with KM12 colon; 0.0737 µM with MOLT-4 leukemia. The GI50 in the assay on SF-268 CNS is 0.0795 µM; with HCT-15 colon, 0.0464 µM; in the assay with M14 melanoma it was 0.0223 µM. The TGI is > 100 µM in the assay with SK-MEL-2 melanoma; > 100 µM in the assay on CAKI-1 renal; > 100 µM in the assay on UACC-257 melanoma; > 100 µM in the assay with IGROV1 ovarian; 0.416 µM in the assay with KM12 colon; > 100 µM in the assay with MOLT-4 leukemia. The TGI in the assay with SF-268 CNS was > 100 µM; in the assay with HCT-15 colon, > 100 µM; in the assay on M14 melanoma, 0.0552 µM.

`CC1CN1c1c(C(=O)/C=C/c2ccccc2)c(-c2ccccc2)nn(C)c1=O` (stereo not drawn): the TGI in the assay on SK-MEL-2 melanoma was found to be 29.9 µM; in the assay with CAKI-1 renal, 81.7 µM; with UACC-257 melanoma, 36.4 µM; in the assay with IGROV1 ovarian it was 59.8 µM; in the assay on KM12 colon, 44.2 µM; in the assay on MOLT-4 leukemia it was 52.7 µM. The TGI was 56.2 µM in the assay on SF-268 CNS, 27.4 µM in the assay on HCT-15 colon and 32.8 µM in the assay with M14 melanoma.

Values taken from PubChem BioAssay (NCI).
